Assay [1] relates to microorganisms with acquired resistance.
Where [2] appears, read: S. haemolyticus SH8463, pair Erythromycin / MBI 31.
Where [3] appears, read: S. haemolyticus SH8472, pair Erythromycin / MBI 31.
Where [4] appears, read: S. haemolyticus SH8564, pair Erythromycin / MBI 31.
Where [5] appears, read: S. haemolyticus SH8575, pair Erythromycin / MBI 31.
Setting [6] is: A. calcoaceticus AC002, agarose dilution.
Setting [7] is: E. cloacae ECL007, agarose dilution.
Where [8] appears, read: E. coli ECO005, agarose dilution.
Where [9] appears, read: E. faecalis EFS001, agarose dilution.
[10] abbreviates: E. faecalis EFS008, agarose dilution.
The mark [11] stands for this setting: K. pneumoniae KP001, agarose dilution.
Setting [12] is: P. aeruginosa PA004, agarose dilution.
Setting [13] is: S. aureus SA014, agarose dilution.
[14] abbreviates: S. aureus SA093, agarose dilution.
[15] abbreviates: S. epidermidis SE010, agarose dilution.
Where [16] appears, read: S. maltophilia SMA002, agarose dilution.
The mark [17] stands for this setting: S. marcescens SMS003, agarose dilution.

Values after ≈ are worked out from the molar mass of the structure shown. Like-named read-outs stand apart in the source and are kept apart here. Peptide text beside a SMILES is read from it.

Regarding I L K K W P W W P W R R [MBI 11G7CN], in the assay on bacterial isolates (A. calcoaceticus 3), the “Peptide MIC + Piperacillin” value is 2 mg/L, the “Peptide MIC Alone” value was 4 mg/L and the “Piperacillin MIC + Peptide” value was 4 mg/L.
With I L K K F P F F P F R R K [MBI 11A1CN], the “Peptide MIC + Tobramycin” value worked out at 0.125 mg/L in assay [1] (P. aeruginosa PA026) and 64 mg/L in assay [1] (S. maltophilia SMA030). Further, the “Ciprofloxacin MIC + Peptide” value in assay [1] (S. aureus SA10) and in assay [1] (S. aureus SA25) was 0.125 mg/L throughout. The “Peptide MIC + Ciprofloxacin” value in assay [1] (S. aureus SA10) was 64 mg/L. Also, in assay [1] (S. maltophilia SMA030), the “Tobramycin MIC + Peptide” value is 2 mg/L. For the same molecule, the FIC in assay [1] (peptide + Ciprofloxacin, S. aureus SA25) amounted to 0.53; in assay [1] (peptide + Tobramycin, S. maltophilia SMA029), 0.16; in assay [1] (peptide + Tobramycin, S. maltophilia SMA030), 0.27. The MIC was 16 mg/L with bacteria (A. calcoaceticus AC002); >128 mg/L against bacteria (E. cloacae ECL007); 32 mg/L in the assay with bacteria (E. coli ECO002); 32 mg/L against bacteria (E. faecalis EFS002); 1 mg/L with bacteria (E. faecium EFM002); >128 mg/L against bacteria (H. influenzae HIN002). The MIC against bacteria (K. pneumoniae KP002) was >128 mg/L; in the assay on bacteria (P. aeruginosa PA004) it was >128 mg/L; against bacteria (P. vulgaris SBPV1), >128 mg/L; against bacteria (S. aureus SA005) it was 8 mg/L; against bacteria (S. epidermidis SE002), 16 mg/L; against bacteria (S. maltophilia SMA002), >128 mg/L. Moreover, the MIC against bacteria (S. marcescens SBSM2) and in the assay on bacteria (S. pneumoniae SBSPN2) was >128 mg/L in each case.
For the molecule `CC[C@H]1OC(=O)[C@H](C)[C@@H](O[C@H]2C[C@@](C)(OC)[C@@H](O)[C@H](C)O2)[C@H](C)[C@@H](O[C@@H]2O[C@H](C)C[C@H](N(C)C)[C@H]2O)[C@](C)(O)C[C@@H](C)C(=O)[C@H](C)[C@@H](O)[C@]1(C)O` [Erythromycin, reference compound], the MIC comb. came out at 0.5 mg/L (≈ 0.681 µM) in assay [1] (S. aureus SA7609, pair Erythromycin / MBI 26); 1 mg/L (≈ 1.36 µM) in assay [1] (S. aureus SA7795, pair Erythromycin / MBI 26); 4 mg/L (≈ 5.45 µM) in assay [1] (S. aureus SA7795, pair Erythromycin / MBI 31); 1 mg/L (≈ 1.36 µM) in assay [1] (S. aureus SA7796, pair Erythromycin / MBI 26); 2 mg/L (≈ 2.73 µM) in assay [1] (S. aureus SA7796, pair Erythromycin / MBI 31); 2 mg/L (≈ 2.73 µM) in assay [1] (S. aureus SA7818, pair Erythromycin / MBI 31). In addition, the MIC comb. in assay [1] (S. epidermidis SE8410, pair Erythromycin / MBI 26) came to 0.5 mg/L (≈ 0.681 µM); in assay [1] (S. epidermidis SE8410, pair Erythromycin / MBI 31) it was 0.5 mg/L (≈ 0.681 µM); in assay [1] (S. epidermidis SE8411, pair Erythromycin / MBI 26), 0.5 mg/L (≈ 0.681 µM); in assay [1] (S. epidermidis SE8411, pair Erythromycin / MBI 31) it was 0.5 mg/L (≈ 0.681 µM); in assay [1] (S. epidermidis SE8503, pair Erythromycin / MBI 26), 0.5 mg/L (≈ 0.681 µM); in assay [1] (S. epidermidis SE8503, pair Erythromycin / MBI 31), 0.5 mg/L (≈ 0.681 µM). Besides, the MIC comb. came to 0.5 mg/L (≈ 0.681 µM) in assay [1] (S. epidermidis SE8565, pair Erythromycin / MBI 26); 0.5 mg/L (≈ 0.681 µM) in assay [1] (S. epidermidis SE8565, pair Erythromycin / MBI 31); 0.5 mg/L (≈ 0.681 µM) in assay [1] (S. haemolyticus SH8463, pair Erythromycin / MBI 26); 0.5 mg/L (≈ 0.681 µM) in assay [1] (setting [2]); 0.5 mg/L (≈ 0.681 µM) in assay [1] (S. haemolyticus SH8472, pair Erythromycin / MBI 26); 0.5 mg/L (≈ 0.681 µM) in assay [1] (setting [3]). The MIC comb. in assay [1] (setting [4]) stood at 2 mg/L (≈ 2.73 µM); in assay [1] (S. haemolyticus SH8575, pair Erythromycin / MBI 26), 2 mg/L (≈ 2.73 µM); in assay [1] (setting [5]), 2 mg/L (≈ 2.73 µM); in assay [1] (S. haemolyticus SH8578, pair Erythromycin / MBI 26), 0.5 mg/L (≈ 0.681 µM); in assay [1] (S. haemolyticus SH8578, pair Erythromycin / MBI 31), 0.5 mg/L (≈ 0.681 µM); in assay [1] (S. haemolyticus SH8597, pair Erythromycin / MBI 26), 0.5 mg/L (≈ 0.681 µM).
For `CC[C@H](C)[C@H](NC(=O)[C@H](CC(C)C)NC(=O)[C@H](C)NC(=O)[C@@H]1CCCN1C(=O)[C@H](CC(C)C)NC(=O)[C@H](C)NC(=O)[C@@H](NC(=O)[C@@H](NC(=O)[C@@H](NC(=O)[C@@H](NC(=O)[C@H](CCCCN)NC(=O)[C@H](CCCCN)NC(=O)[C@H](CC(C)C)NC(=O)[C@@H](NC(=O)[C@H](CCCCN)NC(=O)[C@@H](NC(=O)[C@H](CC(C)C)NC(=O)[C@H](CC(N)=O)NC(=O)[C@H](CCCCN)NC(=O)[C@@H](NC(=O)[C@H](Cc1ccccc1)NC(=O)[C@H](CO)NC(=O)[C@H](CCCCN)NC(=O)[C@H](Cc1c[nH]c2ccccc12)NC(=O)[C@@H](N)CCCCN)[C@@H](C)CC)[C@@H](C)O)C(C)C)C(C)C)C(C)C)[C@@H](C)O)[C@@H](C)O)C(=O)N[C@@H](CO)C(=O)O` [MBI 29A2, KWKSFIKNLTKVLKKVVTTALPALIS] (H-KWKSFIKNLTKVLKKVVTTALPALIS-OH; N-terminus and C-terminus assumed), the results for the “Peptide MI Alone” value in the assay with bacterial isolates (P. aeruginosa PA24 (Ciprofloxacin section)), with bacterial isolates (S. aureus SA10 (Ciprofloxacin section)) and in the assay on bacterial isolates (S. aureus SA93 (Ciprofloxacin section)) were 64 µg/mL, 4 µg/mL and 2 µg/mL, respectively.
Regarding “ILKKWPWWPWRRIMILKKAGS [MBI 11D6CN]”, the MIC with bacteria (A. calcoaceticus AC002) is 4 mg/L; with bacteria (E. cloacae ECL007), >32 mg/L; with bacteria (E. coli ECO002), 32 mg/L; with bacteria (E. faecalis EFS002) it was 4 mg/L; with bacteria (E. faecium EFM003) it was 1 mg/L; in the assay on bacteria (K. pneumoniae KP002), >64 mg/L. Besides, the MIC was >64 mg/L against bacteria (P. aeruginosa PA024); 8 mg/L in the assay on bacteria (S. aureus SA009); 4 mg/L in the assay on bacteria (S. epidermidis SE010); >64 mg/L with bacteria (S. maltophilia SMA001); >64 mg/L against bacteria (S. marcescens SMS004).
Regarding I L K K W P W W A W R R K [MBI 11C4CN], the MIC was 4 mg/L in the assay with bacteria (A. calcoaceticus AC002); >128 mg/L in the assay with bacteria (E. cloacae ECL007); 32 mg/L in the assay on bacteria (E. coli ECO005); 32 mg/L in the assay with bacteria (E. faecalis EFS002); 2 mg/L against bacteria (E. faecium EFM003); >128 mg/L against bacteria (K. pneumoniae KP001). Also, the MIC against bacteria (P. aeruginosa PA005) was >128 mg/L; in the assay on bacteria (S. aureus SA009) it was 4 mg/L; in the assay on bacteria (S. epidermidis SE002), 4 mg/L; with bacteria (S. maltophilia SMA002), 64 mg/L; with bacteria (S. marcescens SMS004), >128 mg/L.
As to W W R W P W W P W R R K [MBI 11A10CN], the MIC in the assay with bacteria (setting [6]) was 4 mg/L; in the assay with bacteria (setting [7]) it was 64 mg/L; in the assay with bacteria (setting [8]) it was 16 mg/L; with bacteria (setting [9]) it was 4 mg/L; with bacteria (setting [10]), 16 mg/L; against bacteria (setting [11]), 16 mg/L. In addition, the MIC in the assay on bacteria (setting [12]) was 64 mg/L; against bacteria (setting [13]), 4 mg/L; against bacteria (setting [14]) it was 2 mg/L; in the assay on bacteria (setting [15]), 4 mg/L; with bacteria (setting [16]) it was 32 mg/L; against bacteria (setting [17]) it was >128 mg/L.
As to I L K K I P I I P I R R K [MBI 11A2CN], the MIC in the assay on bacteria (A. calcoaceticus AC001) was >128 mg/L; in the assay with bacteria (E. cloacae ECL007) it was >128 mg/L; with bacteria (E. coli ECO003), >128 mg/L; against bacteria (E. faecalis EFS002), >128 mg/L; in the assay on bacteria (E. faecium EFM003) it was 16 mg/L; with bacteria (K. pneumoniae KP002), >128 mg/L. For the same molecule, the MIC is >128 mg/L against bacteria (P. aeruginosa PA004), 8 mg/L with bacteria (S. aureus SA004), >128 mg/L against bacteria (S. maltophilia SMA001) and >128 mg/L against bacteria (S. marcescens SMS003).
Turning to I L K K W W W P W R R K [MBI 11G4CN], the MIC in the assay on bacteria (A. calcoaceticus AC002) is 4 mg/L; in the assay with bacteria (E. cloacae ECL007) it was >128 mg/L; against bacteria (E. coli ECO005), 32 mg/L; against bacteria (E. faecalis EFS002), 32 mg/L; against bacteria (E. faecium EFM003), 1 mg/L; in the assay on bacteria (K. pneumoniae KP001), >128 mg/L. Also, the MIC is >128 mg/L against bacteria (P. aeruginosa PA004); 1 mg/L with bacteria (S. aureus SA004); 2 mg/L with bacteria (S. epidermidis SE010); 64 mg/L against bacteria (S. maltophilia SMA002); >128 mg/L in the assay with bacteria (S. marcescens SMS003).
On to “G K P R P Y S P I P T S P R P I R Y [MBI 31]”, for which the Peptide MIC was found to be 16 mg/L in assay [1] (S. aureus SA7796, pair Methicillin / MBI 31); 16 mg/L in assay [1] (S. aureus SA7797, pair Methicillin / MBI 31); 0.5 mg/L in assay [1] (S. aureus SA7823, pair Methicillin / MBI 31); 32 mg/L in assay [1] (S. aureus SA7834, pair Methicillin / MBI 31); 16 mg/L in assay [1] (S. aureus SA7835, pair Methicillin / MBI 31); 0.5 mg/L in assay [1] (setting [2]). The Peptide MIC in assay [1] (setting [3]), in assay [1] (setting [4]) and in assay [1] (setting [5]) was 0.5 mg/L each time.
Regarding I L R W P W W P W A R K [MBI 11H10CN], the MIC in the assay with bacteria (setting [6]) was 4 mg/L; in the assay with bacteria (setting [7]) it was >128 mg/L; with bacteria (setting [8]), 16 mg/L; in the assay with bacteria (setting [9]), 2 mg/L; in the assay with bacteria (setting [10]), 8 mg/L; in the assay on bacteria (setting [11]) it was 16 mg/L. In addition, the MIC in the assay with bacteria (setting [12]) is >128 mg/L; with bacteria (setting [13]) it was 4 mg/L; with bacteria (setting [14]), 1 mg/L; against bacteria (setting [15]), 4 mg/L; in the assay on bacteria (setting [16]), 64 mg/L; with bacteria (setting [17]), >128 mg/L.

The record behind these values is US6503881B2 (priority 1996, dated 2003).
